In article PMC9503459, “Antifungal Activity, Structural Stability, and Immunomodulatory Effects on Human Immune Cells of Defensin from the Lentil Lens culinaris” (Membranes, 2022):
“And” between values parts separate entries of the source, which are not always exact repeats. Equal entries are not always repeated. No end group written: not given here.

Tested on: regulatory CD4+ FoxP3+ T cells (Tregs)
Test: Cytokine response by multiplex xMAP, Tregs
Type: cell-based, human
Conditions: CD4+CD25+ Tregs, 2 µM, 24 h
Method: Colorectal adenocarcinoma Caco-2 cell line (ATCC HTB-37) was cultured in complete DMEM/F12 (1:1) medium containing 10% fetal bovine serum (FBS, Gibco) and 1X antibiotic-antimycotic solution (1XAAS, Invitrogen, Waltham, MA, USA). The acute monocytic leukemia THP-1 line (ATCC TIB-202) was cultured in complete RPMI-1640 medium, containing 10% FBS, 1XAAS, and […]. THP-1 cells were differentiated into pro-inflammatory macrophages (Mφ1) with phorbol 12-myristate 13-acetate (Sigma-Aldrich) for 24 h and subsequently polarized with lipopolysaccharide from E. coli (Sigma-Aldrich) and rhIFN-γ (Sigma-Aldrich) for another 48 h according to previously reported protocol. All cells were cultured in a humidified CO2 incubator (5% CO2, 37 °C). Primary peripheral blood mononuclear cells (PBMCs) collected from a healthy donor were purchased from American Type Culture Collection (ATCC PCS-800-011). CD4^+ T-helper and CD8^+ T cytotoxic cells were isolated from PBMCs by magnetic separation with mouse anti-human CD4-PE (clone 13B8.2, Beckman Coulter Diagnostics, Pasadena, CA, USA) and CD8-PE (clone REA734, Miltenyi Biotec, Bergisch Gladbach, Germany), Anti-PE MicroBeads (Miltenyi Biotec), and LS Separation Columns (Miltenyi Biotec). Isolated CD4^+ and CD8^+ cells were expanded separately with Dynabeads™ Human T-Expander CD3/CD28 (Gibco, Waltham, MA, USA) in RPMI-1640 supplemented with 10% FBS, 1XAAS and 100 U/mL rh-IL-2 (Gibco). Regulatory CD4^+ FoxP3^+ T cells (Tregs) were isolated from PBMCs by magnetic separation with CD4^+CD25^+ Regulatory T Cell Isolation Kit, human (Miltenyi Biotec). Primary CD14^+ blood monocytes were isolated from PBMCs by adherence according to standard technique. Monocyte-derived mature dendritic cells (moDCs) were obtained from CD14^+ blood monocytes according to the previously reported protocol. Briefly, blood monocytes were incubated in complete RPMI-1640 medium, containing 10% FBS, 1XAAS, 800 U/mL rhGM-CSF (Sci-Store, Russia, Moscow) and 500 U/mL rhIL-4 (Sci-Store) for 3 days. Fresh complete RPMI-1640 medium with rhGM-CSF and rhIL-4 was added to the culture on day 3. On day 5, fresh complete RPMI-1640 containing 100 U/mL rhTNF-α (Sigma) as well as 800 U/mL rhGM-CSF and 500 U/mL rhIL-4 was added and the culture was incubated for another 4 days until full maturation.
Caco-2 cells were seeded into the wells of a 48-well plate, coated with 0.1% bovine collagen (Sigma-Aldrich) for 24 h, 3 weeks before the experiment with complete DMEM/F12 (1:1) medium renewal every 2–3 days. Monocytes, moDCs, CD4^+ T-helper and CD8^+ T cytotoxic cells, Mφ1, and Regulatory CD4^+ FoxP3^+ T cells were seeded into the wells of 48-well plates in the complete RPMI-1640 medium supplemented with 10% Human AB serum (HABS, Capricorn Scientific, Ebsdorfergrund, Germany) and 1XAAS 24 h prior to the experiment; medium in Caco-2-containing wells was also replaced with the same medium. After 24 h, half of the medium in each well was replaced by fresh complete RPMI-1640 medium with 10% HABS, supplemented with 4 µM of Lc-def for the sample wells or fresh medium alone for the control wells. Cell cultures were kept in CO2-incubator (5% CO2, 37 °C) for another 24 h. Culture supernatants were collected 24 h later and stored at −70 °C degrees less than one month prior to the analytes assessment. […]

Lc-def: defensin from lentil Lens culinaris seeds (UniProt:B3F051), recombinant, overexpressed in Escherichia coli (KTCENLSDSFKGPCIPDGNCNKHCKEKEHLLSGRCRDDFRCWCTRNC; disulfide (positions not given here); ends not checked; also: disulfide bonds present, pairing not given here; UniProt B3F051 28-74, looked up)
EGF: 4.15 pg/mL | Eotaxin: <3.23↓ pg/ml | FGF-2: 34.19 pg/mL | FLT-3L: 0.62 pg/mL | Fractalkine: <23.19↓ pg/ml | G-CSF: 9.93 pg/mL | GM-CSF: 54.75 pg/mL | GROa: 29.97 pg/mL | IFNa2: <4.43↓ pg/ml | IFNg: 38.55 pg/mL | IL-1RA: 1.04 pg/mL | IL-1a: 19.36 pg/mL | IL-1b: <18.72↓ pg/ml | IL-2: 4.82 pg/mL | IL-3: <0.48↓ pg/ml | IL-4: <0.31↓ pg/ml | IL-5: <0.24↓ pg/ml | IL-6: 317 pg/mL and 317.05 pg/mL | IL-7: <0.33↓ pg/ml | IL-8: 1247 pg/mL | IL-9: 5.08 pg/mL | IL-10: 42.25 pg/mL | IL-12 (p40): 19.56 pg/mL | IL-12 (p70): 3.39 pg/mL | IL-13: 7.95 pg/mL | IL-15: <1.45↓ pg/ml | IL-17A: 2.6 pg/mL | IL-17E/IL-25: <20.59↓ pg/ml | IL-17F: 51.91 pg/mL | IL-18: 0.56 pg/mL | IL-22: 24.29 pg/mL | IL-27: 84.77 pg/mL | IP-10: 114.68 pg/mL | M-GSF: <23.75↓ pg/ml | MCP-1: 505 pg/mL and 505.45 pg/mL | MCP-3: 21.04 pg/mL | MDC: 968.96 pg/mL | MIG: 479.53 pg/mL | MIP-1a: 233 pg/mL and 233.56 pg/mL | MIP-1b: 313.49 pg/mL | PDGF-AA: <7.38↓ pg/ml | PDGF-AB/BB: 119.45 pg/mL | RANTES: 12.31 pg/mL | TGF-a: 1.25 pg/mL | TNFa: 97.83 pg/mL | TNFb: 2.32 pg/mL | VEGFa: <1.27↓ pg/ml | sCD40L: 66.54 pg/mL
